Consider five compounds from publication PMC9401617 (Science Advances, 2022).

Numbering of substitutions follows the chain as printed. Read-outs that look alike come from different tables or passages of the source.

Data set [1] concerns the target T1, hUHRF1 (Homo sapiens, UniProt Q96T88, D142A).
T1 sequence (Q96T88 1-793 D142A): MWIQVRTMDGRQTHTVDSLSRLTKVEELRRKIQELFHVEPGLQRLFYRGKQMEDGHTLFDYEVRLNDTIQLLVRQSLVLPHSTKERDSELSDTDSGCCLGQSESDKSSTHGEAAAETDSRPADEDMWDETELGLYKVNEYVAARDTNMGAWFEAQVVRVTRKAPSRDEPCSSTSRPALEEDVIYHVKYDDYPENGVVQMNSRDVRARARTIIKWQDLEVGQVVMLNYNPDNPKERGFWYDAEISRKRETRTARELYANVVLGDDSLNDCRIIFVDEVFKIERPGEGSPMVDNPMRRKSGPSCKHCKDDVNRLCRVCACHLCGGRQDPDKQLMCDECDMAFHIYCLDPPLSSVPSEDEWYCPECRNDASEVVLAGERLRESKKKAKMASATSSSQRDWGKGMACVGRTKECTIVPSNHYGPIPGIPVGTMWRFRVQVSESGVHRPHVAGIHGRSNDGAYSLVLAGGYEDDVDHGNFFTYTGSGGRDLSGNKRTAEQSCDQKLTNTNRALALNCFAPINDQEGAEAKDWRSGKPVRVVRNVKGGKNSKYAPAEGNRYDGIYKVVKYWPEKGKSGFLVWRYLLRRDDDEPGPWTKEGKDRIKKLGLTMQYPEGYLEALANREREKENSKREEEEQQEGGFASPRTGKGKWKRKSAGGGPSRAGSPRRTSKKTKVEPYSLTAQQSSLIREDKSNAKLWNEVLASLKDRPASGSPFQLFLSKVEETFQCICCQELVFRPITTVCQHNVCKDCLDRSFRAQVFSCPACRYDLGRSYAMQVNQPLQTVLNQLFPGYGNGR
Briefly: MST with labeled recombinant mutant protein. The format is binding.

The target in data set [2] is T2, hUHRF1 (Homo sapiens, UniProt Q96T88).
T2 sequence (Q96T88 1-793): T1 sequence (Q96T88 1-793 D142A) with A142D
Put plainly: MST with labeled recombinant protein. The format is binding.

Data set [3] concerns the target T2, hUHRF1. Put plainly: MST with labeled recombinant protein. The format is binding. The source holds these as a separate data set.
In data set [4] the target is T3, hUHRF1 (Homo sapiens, UniProt Q96T88, R649A).
T3 sequence (Q96T88 1-793 R649A): T1 sequence (Q96T88 1-793 D142A) with A142D, R649A
Put plainly: MST with labeled recombinant mutant protein. The class given is binding.

The subject of another data set is hUHRF1 (Homo sapiens). Briefly: EMSA. A general note: In EMSA bound probe runs differently from free probe, usually more slowly.

Consider `CCCCCCCCCCCCCCCC(=O)OC[C@H](COP(=O)(O)O[C@H]1[C@H](O)[C@@H](OP(=O)(O)O)[C@H](O)[C@@H](O)[C@H]1O)OC(=O)CCCCCCCCCCCCCCC` [D142*, di-C 16:0 PI5P], for which, on hUHRF1 [1], the dissociation constant (Kd) is 60 µM.

Consider `CCCCCCCCCCCCCCCC(=O)OC[C@H](COP(=O)(O)O[C@@H]1[C@H](O)[C@H](OP(=O)(O)O)[C@@H](O)[C@H](O)[C@H]1O)OC(=O)CCCCCCCCCCCCCCC` [PI3P, di-C 16:0 PI3P], for which the Kd at hUHRF1 [2] amounted to 5.5 µM.

In the case of `CCCCCCCCCCCCCCCC(=O)OC[C@H](COP(=O)(O)O[C@H]1[C@H](O)[C@@H](OP(=O)(O)O)[C@H](O)[C@@H](O)[C@H]1O)OC(=O)CCCCCCCCCCCCCCC` [PI5P, di-C 16:0 PI5P], at hUHRF1 [3], the Kd is 4.7 µM.

For `CCCCCCCCCCCCCCCC(=O)OC[C@H](COP(=O)(O)O[C@H]1[C@H](O)[C@@H](OP(=O)(O)O)[C@H](O)[C@@H](O)[C@H]1O)OC(=O)CCCCCCCCCCCCCCC` [R649*, di-C 16:0 PI5P], the Kd at hUHRF1 [4] amounted to 3 µM.

In the data set with hUHRF1 (Homo sapiens), “H3unmodified mononucleosome, 147 bp Widom 601” showed a dissociation constant Kd of 1.1 µM.

Usually Kd stands for the constant that tells how readily two partners part at equilibrium.
